Source: US20140121272A1, “DEODORIZATION OF PEROXYCARBOXYLIC ACIDS USING CHAOTROPIC AGENTS” (ECOLAB USA INC., priority 2012, published 2014)

Assay: pH of Oxonia Active after addition of the additive
Assay type: physicochemical
Settings: for effect of the additive on the product's pH: Oxonia Active; for pH: additive dissolved in Oxonia Active
Protocol: The ability to remove odor from a concentrated peracetic acid product was evaluated. Oxonia Active is a concentrated peracetic acid product available from Ecolab, Inc. (St. Paul, Minn.). The commercial product has about 6% peracetic acid and 22% hydrogen peroxide.
Urea was dissolved into the Oxonia Active at various molar ratios to the peracetic acid level and the resulting effect on the product's odor was observed.

Compound	effect of the additive on the product's pH	pH (molar POAA/additive 0.5/1)	pH (molar POAA/additive 1/0.25)	pH (molar POAA/additive 1/0.50)	pH (molar POAA/additive 1/1)
NC(N)=O [Urea]	did not significantly change	1.38	1.10	1.10	1.16
Ammonium carbonate	raised the pH	7.00		3.64	5.90
